From patent US20050202467A1, “Novel spliced 5-HT1A receptors and methods, kits, and uses relating thereto” (Philadelphia Health and Education Corporation (d/b/a MCP …, priority 2003, published 2005)

What was measured:
[1] = tested on: primary T cells; assay: response of mitogen (PHA) stimulated T-cells to selective 5-HT1A inhibitors; assay type: cell-based; conditions: mitogen (PHA) stimulated T cell cultures, at the concentrations tested (FIG. 2)
[2] = tested on: neoplastic B and T cell lines; assay: inhibition of activation of neoplastic B and T cell lines; assay type: cell-based
Excerpt: Each of the tested compounds has a high affinity for the 5-HT1A receptor and was expected to inhibit the receptor's activity equally well.

Molecule	inhibition of the activation of primary T cells [1]	inhibition of the activation of neoplastic B and T cell lines [2]
COc1ccccc1N1CCN(CCCCN2C(=O)c3ccccc3C2=O)CC1 [NAN-190]	reproducibly inhibited	reproducibly inhibited
COc1ccccc1N1CCN(CCN(C(=O)c2ccc(F)cc2)c2ccccn2)CC1 [p-MPPF]	little or no effects	
WAY-100635	little or no effects	
